Assays:
[1] = tested on: Adult Merino wethers; test: Subcutaneous infusion in sheep: staple plucking force and defleecing result; assay type: in vivo; conditions: for Plucking Force day 7: day 7 (in day 9 column)
Excerpt: One way of defining the extent of wool fibre weakening is by reference to the plucking force (Newtons/ktex, or N/ktex) required to remove the fleece. Methods for making this measurement are described by A. J. Gordon, Aust. J. of Exp. Agric. Anim. Husb. 20, 40-49, and Moore et al, Search. 12, 128-129.
Adult Merino wethers were housed under cover in individual pens or metabolic cages. The animals were offered a maintenance ration of 600 g of a pelleted mixture of 60% lucerne and 40% oats as one meal daily. Drinking water was provided ad lib.
(§1) Wethers were prepared for infusion experiments by the insertion of a polythene catheter below the skin so that the orifice lay near the centre of a 10×10 cm tattooed side on the right midside region of the body. The defleecing agent was dissolved in sterile saline solution and infused using a Harvard pump delivering a volume of 0.030 ml/min. Control animals were infused with saline solution alone.

[2] = tested on: new born mice; conditions: injected into new born mice; cited from earlier work
[3] = tested on: Adult Merino wethers; test: Wool harvested from tattooed midside area after subcutaneous infusion (wool growth); assay type: in vivo, sheep
Procedure: as §1
Recovery to preinfusion growth levels was observed 2 weeks later. At lower dose levels wool growth inhibition was noticeably less, the maximum recorded effect being about 80% inhibition of wool growth. This occurred about 4 weeks after infusion, but normal wool growth was attained about 2 weeks later.

[4] = Radioimmunoassay of plasma EGF correlated with plucking force; assay type: in vivo, sheep
Procedure: During the course of the above trails blood samples were taken from selected animals at approximately 1/2 hour intervals after the start of treatment. A correlation between radioimmunoassay determinations of plasma concentrations EGF and forces subsequently required to pluck wool from the skin of the sheep, pointed to the desirability of establishing a plasma concentration EGF of at least about 10 ng/ml for a period of at least about 15 hrs. in order to modify wool growth sufficiently for the fleece to be easily removed by hand.

[5] = sheep 1, 36.3 kg, EGF dose total 27.5, 1.86 mg/kg^0.75, s.c. infusion 66 hr
[6] = sheep 3, 41.0 kg, EGF dose total 11.7, 0.74 mg/kg^0.75, s.c. infusion 28 hr
[7] = sheep 4, EGF dose total 11.7, s.c. infusion 28 hr
[8] = sheep 5, EGF dose total 10.0, s.c. infusion 28 hr
[9] = sheep 7, 49.0 kg, EGF dose total 5.8, 0.32 mg/kg^0.75, s.c. infusion 28 hr
[10] = sheep 8, 47.6 kg, EGF dose total 4.7, 0.26 mg/kg^0.75, s.c. infusion 28 hr
[11] = sheep 9, 47.4 kg, EGF dose total 4.7, 0.26 mg/kg^0.75, s.c. infusion 28 hr
[12] = sheep 10, 42.0 kg, EGF dose total 4.7, 0.28 mg/kg^0.75, s.c. infusion 26.5 hr
[13] = sheep 12, 45.4 kg, EGF dose total 2.9, 0.17 mg/kg^0.75, s.c. infusion 28 hr
[14] = sheep 13, 30.6 kg, EGF dose total 2.4, 0.19 mg/kg^0.75, s.c. infusion 25 hr
[15] = sheep 14, 29.4 kg, EGF dose total 2.0, 0.16 mg/kg^0.75, s.c. infusion 26.5 hr
[16] = sheep 16, EGF dose total 1.0, s.c. infusion 28 hr
[17] = sheep 17, 40.8 kg, EGF dose total 1.0, 0.06 mg/kg^0.75, s.c. infusion 28 hr
[18] = sheep 19, 31.8 kg, EGF dose total 5.0, 0.37 mg/kg^0.75, s.c. infusion 7 hr
[19] = sheep 20, 41.0 kg, EGF dose total 5.0, 0.31 mg/kg^0.75, s.c. infusion 7 hr
[20] = sheep 21, 41.9 kg, EGF dose total 5.0, 0.30 mg/kg^0.75, s.c. infusion 7 hr
[21] = sheep 22, 45.0 kg, EGF dose total 5.0, 0.29 mg/kg^0.75, s.c. infusion 7 hr
[22] = sheep 23, 50.6 kg, EGF dose total 5.0, 0.26 mg/kg^0.75, s.c. infusion 7 hr
[23] = sheep 24, 28.6 kg, EGF dose total 2.4, 0.20 mg/kg^0.75, s.c. infusion 48 hr
[24] = sheep 25, 28.4 kg, EGF dose total 2.4, 0.19 mg/kg^0.75, s.c. infusion 48 hr
[25] = sheep 26, 42.0 kg, EGF 1-45 dose total 4.9, 0.30 mg/kg^0.75, s.c. infusion 26.5 hr
[26] = sheep 27, EGF 1-45 dose total 1.0, s.c. infusion 28 hr

Substance: EGF: polypeptide of 53 amino acids prepared from the submaxillary glands of adult male mice
- Fleece removal ([1]; s.c. infusion at rates as low as 0.16 mg EGF/kg^0.75): consistently allowed fleece to be easily removed
- Time to casting of the whole fleece ([1]; s.c. infusion of amounts greater than about 0.25 mg EGF/kg^0.75): ≤ 7 days
- Fleece result ([1]; s.c. infusions less than 0.25 mg EGF/kg^0.75): fleeces were retained but staples could easily be removed by hand
- Plucking Force day 1 [1, 5]: 12.2 N/ktex
- Plucking Force day 9 [1, 5]: 0.1 N/ktex
- Result [1, 5]: Fleece cast
- Plucking Force day 1 [1, 6]: 8.9 N/ktex
- Plucking Force day 9 [1, 6]: 0 N/ktex
- Result [1, 6]: Fleece cast
- Plucking Force day 1 [1, 7]: 3.4 N/ktex
- Result [1, 7]: Fleece cast
- Plucking Force day 7 [1, 7]: 0.3 N/ktex
- Plucking Force day 1 [1, 8]: 4.1 N/ktex
- Result [1, 8]: Fleece cast
- Plucking Force day 7 [1, 8]: 0.2 N/ktex
- Plucking Force day 1 [1, 9]: 7.5 N/ktex
- Plucking Force day 9 [1, 9]: 0.4 N/ktex
- Result [1, 9]: Fleece cast
- Plucking Force day 1 [1, 10]: 21.3 N/ktex
- Plucking Force day 9 [1, 10]: 2.1 N/ktex
- Result [1, 10]: Fleece cast
- Plucking Force day 1 [1, 11]: 12.5 N/ktex
- Plucking Force day 9 [1, 11]: 1.4 N/ktex
- Result [1, 11]: Fleece cast
- Plucking Force day 1 [1, 12]: 7.6 N/ktex
- Plucking Force day 9 [1, 12]: 0.1 N/ktex
- Result [1, 12]: Fleece cast
- Plucking Force day 1 [1, 13]: 6.6 N/ktex
- Plucking Force day 9 [1, 13]: 0.6 N/ktex
- Result [1, 13]: Weakened fibre
- Plucking Force day 1 [1, 14]: 11.3 N/ktex
- Plucking Force day 9 [1, 14]: 2.1 N/ktex
- Result [1, 14]: Weakened fibre
- Plucking Force day 1 [1, 15]: 9.3 N/ktex
- Plucking Force day 9 [1, 15]: 1.5 N/ktex
- Result [1, 15]: Weakened fibre
- Plucking Force day 1 [1, 16]: 5.5 N/ktex
- Plucking Force day 9 [1, 16]: 3.6 N/ktex
- Result [1, 16]: Weakened fibre
- Plucking Force day 1 [1, 17]: 10.6 N/ktex
- Plucking Force day 9 [1, 17]: 8.7 N/ktex
- Result [1, 17]: No effect
- Plucking Force day 1 [1, 18]: 7.0 N/ktex
- Plucking Force day 9 [1, 18]: 0.4 N/ktex
- Result [1, 18]: Fleece cast
- Plucking Force day 1 [1, 19]: 17.9 N/ktex
- Plucking Force day 9 [1, 19]: 1.0 N/ktex
- Result [1, 19]: Fleece cast
- Plucking Force day 1 [1, 20]: 11.4 N/ktex
- Plucking Force day 9 [1, 20]: 0.8 N/ktex
- Result [1, 20]: Fleece cast
- Plucking Force day 1 [1, 21]: 9.0 N/ktex
- Plucking Force day 9 [1, 21]: 1.0 N/ktex
- Result [1, 21]: Fleece cast
- Plucking Force day 1 [1, 22]: 12.7 N/ktex
- Plucking Force day 9 [1, 22]: 2.8 N/ktex
- Result [1, 22]: Fleece cast
- Plucking Force day 1 [1, 23]: 14.8 N/ktex
- Plucking Force day 9 [1, 23]: 3.2 N/ktex
- Result [1, 23]: Weakened fibre
- Plucking Force day 1 [1, 24]: 11.7 N/ktex
- Plucking Force day 9 [1, 24]: 2.4 N/ktex
- Result [1, 24]: Weakened fibre
- Effect on body growth rate and hair growth [2]: can inhibit body growth rate and hair growth
- Wool production ([3]; 0.74 and 1.86 mg EGF/kg^0.75, 2 weeks after the start of infusion): declined to near zero
- Time to recovery to preinfusion growth levels ([3]; 0.74 and 1.86 mg EGF/kg^0.75, counted after the near-zero point (2 weeks after start)): 2 weeks
- Time of maximum wool growth inhibition after infusion ([3]; lower dose levels): about 4 weeks
- Time to normal wool growth after maximum inhibition ([3]; lower dose levels): about 2 weeks
- Maximum inhibition of wool growth ([3]; lower dose levels (below 0.74 mg EGF/kg^0.75)): about 80%
- Period of plasma concentration needed for fleece to be easily removed by hand ([4]; at plasma EGF of at least about 10 ng/ml): at least 15 hrs
- Plasma concentration EGF needed for fleece to be easily removed by hand ([4]; radioimmunoassay, correlated with plucking force): at least 10 ng/ml

Substance: EGF 1-45: derivative prepared by tryptic digestion of the intact EGF peptide (NSYPGCPSSYDGYCLNGGVCMHIESLDSYTCNCVIGYSGDRCQTR; not fully specified; Epidermal growth factor; UniProt P01132 977-1021, looked up, fragment)
- Infusion results compared with EGF ([1]; s.c. infusion): closely similar results
- Plucking Force day 1 [1, 25]: 5.6 N/ktex
- Plucking Force day 9 [1, 25]: 0.3 N/ktex
- Result [1, 25]: Fleece cast
- Plucking Force day 1 [1, 26]: 4.1 N/ktex
- Plucking Force day 9 [1, 26]: 3.1 N/ktex
- Result [1, 26]: Weakened fibre

— US4490365A, “Defleecing compounds” (Commonwealth Scientifique & Industrial Research Organization, priority 1980, dated 1984)
